Source: patent US12551573B2, “Compositions and methods for the targeting of PCSK9” (Scribe Therapeutics Inc., priority 2022, dated 2026)

Key:
[1] = system: mouse PCSK9 locus; test: Intracellular PCSK9 staining by flow cytometry in Hepa1-6 cells lipofected with mRNA and gRNA; type: cell-based; settings: for permanence of PCSK9 silencing by spacer: paired with LTRP1-ZIM3 mRNA, through day 25
Experimental: Seeded Hepa1-6 cells treated with the NATE™ inhibitor were lipofected with 300 ng of mRNA encoding dXR1 or LTRP1-ZIM3 (Table 12) and 150 ng of a PCSK9-targeting gRNA (Table 14). Seven different gRNAs spanning the promoter region of the mouse PCSK9 locus were tested, in addition to a non-targeting sequence complementary to the human PCSK9 gene (Table 14). Cells were harvested at 6, 13, and 25 days after transfection to measure intracellular levels of the PCSK9 protein using an intracellular flow cytometry staining protocol. Briefly, cells were fixed using 4% paraformaldehyde in PBS, permeabilized, and stained using a mouse anti-PCSK9 primary antibody (R&D Systems®), followed by a fluorescent goat anti-mouse IgG secondary antibody (Thermo Fisher®). […] Cell populations were gated using the non-targeting gRNA as a negative control.
Seeded Hepa1-6 cells treated with the NATE™ inhibitor were lipofected with 300 ng of mRNA encoding LTRP1-ZIM3, LTRP5-ZIM3, catalytically-active CasX 491, or dCas9-ZNF10-DNMT3A/3L, and 150 ng of PCSK9-targeting gRNA (Table 14). Intracellular levels of PCSK9 protein were measured at 7, 14, 21, 36, and 71 days post-transfection using an intracellular staining protocol as described earlier for experiment #1.
Transfection of mRNA and gRNA into Hepa1-6 cells and intracellular PCSK9 staining were performed as described in Example 2. Briefly, each well of seeded Hepa1-6 cells was transfected with 300 ng of mRNA encoding LTRP5-ZIM3 or LTRP5-ADD-ZIM3 and 150 ng of PCSK9-targeting gRNA with spacer 27.88 or 27.94. Intracellular levels of PCSK9 protein were measured at various timepoints, up to day 53 post-transfection using an intracellular staining protocol as described earlier in Example 2. A non-targeting gRNA was used as an experimental control.

[2] = system: human PCSK9 locus; test: Secreted PCSK9 by ELISA (normalized to total cell count) in Huh7 cells transfected with mRNA and gRNA; type: cell-based; settings: paired with LTRP5-ADD-ZIM3 mRNA; for Secreted PCSK9 / Percent reduction in PCSK9 secretion / Average percent reduction in PCSK9 secretion: Huh7 cells, 6 days post-transfection; for Secreted PCSK9: normalized to total cell count; for Percent reduction in PCSK9 secretion: relative to non-targeting gRNA control; for Average percent reduction in PCSK9 secretion: averaged from the two doses
Experimental: To assess PCSK9 secretion, seeded Huh7 cells were transfected with mRNA encoding a catalytically-active CasX 676, dXR1, or LTRP5-ADD-ZIM3 and a gRNA with scaffold 316 and spacer targeting either the B2M or PCSK9 locus. Media supernatant was harvested at 6, 18, 36, and 87 days post-transfection to assess level of PCSK9 secretion by ELISA. Levels of PCSK9 secretion were normalized to total cell count. As an additional control, PCSK9 secretion was also measured in the media supernatant harvested from wells containing untreated, naïve cells.
The following three human hepatocyte cancer cell lines were used in this experiment: HepG2 cells, Hep3B cells, and Huh7 cells. ˜15,000 cells of each cell line were seeded per well; the next day, seeded cells were transfected with mRNA encoding a catalytically-active CasX 676, dXR1, or LTRP5-ADD-ZIM3 and a gRNA with scaffold 316 and spacer targeting either the B2M or PCSK9 locus (see Table 23 for specific spacers and sequences). Media supernatant was harvested at 4 days post-transfection to assess level of PCSK9 secretion by ELISA, and levels of PCSK9 secretion were normalized to total cell count and illustrated in FIGS. 11A-11C. Culturing of treated Huh7 cells continued, and media supernatant was harvested at 14 and 27 days post-transfection for measuring PCSK9 secretion by ELISA. As an additional experimental control, PCSK9 secretion was also measured in the media supernatant harvested from wells containing untreated, naïve cells.
To assess PCSK9 secretion, seeded Huh7 cells were co-transfected with mRNA encoding for LTRP5-ADD-ZIM3 and a gRNA with scaffold 316 and spacer targeting the PCSK9 locus using Lipofectamine™ 3000. Two doses of total RNA input at a 2:1 mass ratio of mRNA to gRNA were used for screening: 50 ng mRNA: 25 ng gRNA and 25 ng mRNA: 12.5 ng gRNA. Media supernatant was harvested at 6 days post-transfection to assess level of PCSK9 secretion by ELISA (Table 74). Levels of PCSK9 secretion were normalized to total cell count. As an additional control, PCSK9 secretion was also measured in the media supernatant harvested from cells transfected with mRNA encoding for mScarlet.

Row | Substance | knockdown of intracellular PCSK9 ([1]; 300 ng LTRP1-ZIM3 mRNA + 150 ng gRNA (scaffold 174, v1), day 6) | permanence of PCSK9 silencing by spacer [1] | durability of PCSK9 repression by spacer ([1]; paired with LTRP5-ZIM3 or LTRP5-ADD-ZIM3, day 53) | durable PCSK9 knockdown ([1]; third-party-produced mRNA paired with gRNAs containing various spacers, up to day 71) | Secreted PCSK9 ([2]; 25 ng mRNA:12.5 ng gRNA) | Percent reduction in PCSK9 secretion ([2]; 25 ng mRNA:12.5 ng gRNA) | Secreted PCSK9 ([2]; 50 ng mRNA:25 ng gRNA) | Percent reduction in PCSK9 secretion ([2]; 50 ng mRNA:25 ng gRNA) | Average percent reduction in PCSK9 secretion [2] | secreted PCSK9: sustained repression through day 36 ([2]; Huh7, scaffold 316, compared to spacer 6.1 paired with CasX 676)
1 | CCCCUCUUAAUCCCCACUCC (spacer within chemically modified full gRNA with 2'-OMe and phosphorothioate ends, further chemistry not given here) [spacer 27.94, mouse PCSK9] | > 80% | strongest permanence in silencing PCSK9 | more durable repression than use of spacer 27.88 by day 53 | highest level of PCSK9 repression | – | – | – | – | – | –
2 | CGCUACCUGCCUAAACUUUG (spacer within chemically modified full gRNA with 2'-OMe and phosphorothioate ends, further chemistry not given here) [spacer 27.88, mouse PCSK9] | – | strongest permanence in silencing PCSK9 | – | – | – | – | – | – | – | –
3 | TG-06-346 (guide CCCACCUGUGCCGCGGCGAG; listed as RNA, chemistry not given here) | – | – | – | – | 81.63 ng/mL | 14.58% | 77.02 ng/mL | 6.39% | 4.09% | –
4 | TG-06-347 (guide CUCCUUCACCCACCUGUGCC; listed as RNA, chemistry not given here) | – | – | – | – | 51.83 ng/mL | 27.24% | 26.55 ng/mL | 67.73% | 47.49% | –
5 | TG-06-348 (guide AGGCAUUCACUCCUUCACCC; listed as RNA, chemistry not given here) | – | – | – | – | 35.55 ng/mL | 50.1% | 23.14 ng/mL | 71.88% | 60.99% | –
6 | TG-06-349 (guide CUGUGCCUGGUGCAGUUCCC; listed as RNA, chemistry not given here) | – | – | – | – | 87.55 ng/mL | 22.89% | 91.34 ng/mL | 11.02% | 16.95% | –
7 | TG-06-350 (guide GUGUCAUAAAGAAAUUGCCU; listed as RNA, chemistry not given here) | – | – | – | – | 67.87 ng/mL | 4.74% | 71.25 ng/mL | 13.4% | 9.07% | –
8 | TG-06-351 (guide UUAUGACACAGAACUCAUGC; listed as RNA, chemistry not given here) | – | – | – | – | 62.93 ng/mL | 11.67% | 56.34 ng/mL | 31.52% | 21.6% | –
9 | TG-06-352: PCSK9-targeting TTC spacer positioned beyond the 1100 bp TSS-proximal window (Table 17) (guide UCCCUCACCAAUUACCCCUC; listed as RNA, chemistry not given here) | – | – | – | – | – | – | – | – | – | effective repression through day 36
10 | TG-06-1046 (guide UCUCUUACAUGGGGGGAAAC; listed as RNA, chemistry not given here) | – | – | – | – | 76.27 ng/mL | 7.05% | 78.9 ng/mL | 4.1% | 1.48% | –
11 | UCCCAGUAUCGACAGCCCUU (listed as RNA, chemistry not given here) [spacer 6.123, Promoter] | – | – | – | – | 51.32 ng/mL | 27.97% | 30.49 ng/mL | 62.95% | 45.46% | –
12 | UCCCUCUGCGCGUAAUCUGA (listed as RNA, chemistry not given here) [spacer 6.150, Promoter] | – | – | – | – | 39.59 ng/mL | 44.42% | 18.33 ng/mL | 77.73% | 61.08% | –
13 | UCCUCCUGCCUGGUACACAA (listed as RNA, chemistry not given here) [spacer 6.127, Promoter] | – | – | – | – | 49.1 ng/mL | 31.08% | 22.57 ng/mL | 72.56% | 51.82% | –
14 | UCGGCCUCCGGGUCUCCCAA (listed as RNA, chemistry not given here) [spacer 6.170, Intron 1] | – | – | – | – | 72.96 ng/mL | 2.41% | 64.19 ng/mL | 21.98% | 9.79% | –
15 | UGAACAUGGUGUGUAAAAGG (listed as RNA, chemistry not given here) [spacer 6.131, Promoter] | – | – | – | – | 57.89 ng/mL | 18.74% | 28.4 ng/mL | 65.48% | 42.11% | –
16 | UGGGUCCACCUUGUCUCCUG (listed as RNA, chemistry not given here) [spacer 6.145, Promoter] | – | – | – | – | 18.54 ng/mL | 73.98% | 15.8 ng/mL | 80.8% | 77.39% | –
17 | UUCCACUGGCCUUAACCUGG (listed as RNA, chemistry not given here) [spacer 6.142, Promoter] | – | – | – | – | 27.27 ng/mL | 61.73% | 30.87 ng/mL | 62.48% | 62.1% | –
18 | UUUUACACACCAUGUUCAAG (listed as RNA, chemistry not given here) [spacer 6.129, Promoter] | – | – | – | – | 90.82 ng/mL | 27.47% | 59.93 ng/mL | 27.16% | 0.16% | –
